SMILES strings stand for the structures. pIC50: −log10 of the molar value.

The term pIC50 denotes −log10 of the IC50, conventionally taken in molar units.

In one experiment the target is BRD4-BD1 (Homo sapiens (Human), UniProt O60885). The experiment can be described thus: AlphaLisa bromodomain binding assay, BRD4-BD1. The following applies: Table 6; read-out: BRD4(1) IC50. The source says: An AlphaLisa assay was used to observe bromodomain binding and measure IC50s for the compounds disclosed herein. An AlphaLisa assay is a bead-based assay used to detect interactions between bromodomains and polyacetylated histone peptides. Donor and acceptor beads bound to target and ligand are brought into proximity by this protein-protein interaction.
Equipment Required • 1. […] Plate centrifuge • 3. Plate shaker • 4. […] Single channel and multi-channel pipettes • 6. Microplate reader (Pherastar)
Stock and Final Assay Concentrations (FAC) • 1. All reference and test compounds are made at a concentration of 10 mM in DMSO. Compounds are serially diluted in DMSO and a FAC starting from 10 μM to 10 point 3 fold serial dilutions is arrived. FAC of DMSO is 1%. • 2. Enzyme stock and FAC
Biotinylated substrate (Acetylated histone H4, biotinylated substrate—cat no. AS64989-025, Anaspec) stock and FAC
• 4. Acceptor and donor beads stock and FAC
Buffers • For the enzyme and substrate dilution following buffer is used (for 50 ml) • HEPES: 50 mM 2.5 ml • NaCl: 25 mM 1.25 ml • DTT: 10 mM 0.05 ml • BSA: 0.1% 0.05 g • MilliQ water: 45.7 ml • For dilution of acceptor and donor beads AlphaLISA 5× epigenetics Buffer Perkin Elmer (Cat: AL008C) is used at 1× concentration.
Procedure • 1. […] Tap the plate gently • 3. […] Cover with plate sealer • 5. […] Incubate the plate at room temperature for 10 minutes • 7. Add 10 μl of the substrate • 8. Cover with plate sealer • 9. […] Cover with plate sealer • 14. […] Cover with plate sealer • 18.
(§1) The percent inhibition is calculated in the excel analysis template and the IC50 values are subsequently determined using a sigmoidal dose-response curve (variable slope) using GraphPad Prism® 5 software.
In general terms: Bead proximity is the source of the signal in Alpha formats.

In a further experiment the target is JAK2 (Homo sapiens (Human), UniProt O60674). Description: HTRF kinase assay, JAK2. The settings on record: Table 6. It is filed as biochemical.
Excerpt: A kinase assay with HTRF was used to observe JAK activity and calculate the IC50s of compounds disclosed herein. HTRF is an enzymatic assay used to determine the amount of phosphorylated peptide. FRET (Fluorescence Resonance Energy Transfer) is based on the transfer of energy between two fluorophores—a donor and an acceptor—when in close proximity. Molecular interactions between biomolecules can be assessed by coupling each partner with a fluorescent label and by detecting the level of energy transfer. The amount of phopshorylated peptide can be detected using a combination of a Eu 3+Cryptate labeled anti-phospho residue antibody, SA-XL665 and a biotinylated substrate. The signal is proportional to the concentration of phospho-residues.
Equipment Required • 1. […] Plate centrifuge • 3. Plate shaker • 4. […] Single channel and multi-channel pipettes • 6. Microplate reader (Pherastar)]
Stock and Final Assay Concentrations (FAC) • 1. All reference and test compounds are made at a concentration of 10 mM in DMSO. Compounds are serially diluted in DMSO and a FAC starting from 10 μM to 10 point 3 fold serial dilutions is arrived. For Ruxolitinib the starting FAC is 1 μM. FAC of DMSO is 1%. • 2. Enzyme stock and FAC
• JAK-1: Invtirogen Cat: PR8767C • JAK-2: Invtirogen Cat: PR7820B • JAK-3: Invtirogen Cat: PR7507B • 3. Substrate (synthetic peptide-Biotinylated-N-terminal tag-[…] from Biopeptide) stock and FAC
• Adenosine 5′-triphosphate disodium salt hydrate: Sigma Cat: A26209 • 5. […] Buffers • Base buffer (for 50 ml)
• HTRF buffer: • 50 mM Tris-HCl, pH—7.5 • 100 mM NaCl • 0.1% BSA • 0.05% Tween20 • 0.5 mM EDTA
To a 384 well black-plate: • 1. Add 17 μL of the buffer to each well of the 384-well black plate • 2. […] Add 5 μl of the enzyme to each well of the plate • 4. Add 10 μl of the substrate and ATP mix to all the wells • 5. Cover with plate sealer • 6. […] Incubate at room temperature for 1 hour on shaker • 8. […] Add 37.5 μL of the HTRF mix to these wells. • 9. Incubate the plate at room temperature on shaker for 45 minutes. • 10.
as §1

Chain of JAK2 (O60674 whole entry): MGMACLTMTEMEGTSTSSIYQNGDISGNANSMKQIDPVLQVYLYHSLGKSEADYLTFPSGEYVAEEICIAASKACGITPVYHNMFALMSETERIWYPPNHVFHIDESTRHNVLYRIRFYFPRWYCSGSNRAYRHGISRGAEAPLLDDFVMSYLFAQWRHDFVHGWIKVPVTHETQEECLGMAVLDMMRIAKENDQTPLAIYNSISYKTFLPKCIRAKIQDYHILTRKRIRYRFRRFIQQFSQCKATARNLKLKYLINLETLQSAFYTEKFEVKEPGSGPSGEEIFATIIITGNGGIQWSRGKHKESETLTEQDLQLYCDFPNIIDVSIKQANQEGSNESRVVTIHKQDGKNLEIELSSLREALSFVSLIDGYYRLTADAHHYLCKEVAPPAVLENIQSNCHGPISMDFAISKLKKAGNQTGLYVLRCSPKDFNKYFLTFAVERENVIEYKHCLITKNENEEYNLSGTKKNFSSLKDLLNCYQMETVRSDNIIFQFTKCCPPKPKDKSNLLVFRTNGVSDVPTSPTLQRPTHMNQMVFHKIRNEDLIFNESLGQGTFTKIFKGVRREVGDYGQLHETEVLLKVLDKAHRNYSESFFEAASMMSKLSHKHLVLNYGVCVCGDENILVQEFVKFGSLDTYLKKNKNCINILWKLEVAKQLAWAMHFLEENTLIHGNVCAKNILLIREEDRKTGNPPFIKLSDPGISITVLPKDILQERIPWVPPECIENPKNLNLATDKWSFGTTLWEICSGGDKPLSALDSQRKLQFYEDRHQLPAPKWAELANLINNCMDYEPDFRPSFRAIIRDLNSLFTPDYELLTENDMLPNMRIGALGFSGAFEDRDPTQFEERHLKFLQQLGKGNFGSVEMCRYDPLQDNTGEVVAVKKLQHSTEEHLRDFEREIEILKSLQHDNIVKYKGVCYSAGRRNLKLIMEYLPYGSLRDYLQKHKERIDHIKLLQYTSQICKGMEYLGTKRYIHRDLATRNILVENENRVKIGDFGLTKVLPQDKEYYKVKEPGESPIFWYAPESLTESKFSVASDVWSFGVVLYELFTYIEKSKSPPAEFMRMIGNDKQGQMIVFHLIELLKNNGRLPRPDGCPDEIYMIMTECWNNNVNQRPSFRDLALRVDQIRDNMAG

Regarding `Cc1ccc(-n2ccc3cnc(Nc4ccc(N5CCN(C)CC5)cc4)nc32)cc1NS(=O)(=O)C1CC1`, the pIC50 on BRD4-BD1 is 5.51; on JAK2, 7.71.
Take `O=S(=O)(Nc1cc(-n2ccc3cnc(Nc4ccc(N5CCNCC5)cc4)nc32)ccc1F)C1CC1`: the pIC50 is 5.98 at BRD4-BD1 and 7.84 on JAK2.
Turning to `CC(C)(C)S(=O)(=O)Nc1cccc(-n2ccc3cnc(Nc4ccc(N5CCOCC5)cc4)nc32)c1`, the pIC50 was 5.26 on BRD4-BD1 and 7.61 at JAK2.
Take `Cc1ccc(-n2ccc3cnc(Nc4ccc(N5CCN(C)CC5)cc4)nc32)cc1NS(=O)(=O)C(C)(C)C`: the pIC50 on BRD4-BD1 was 6.17; at JAK2 it was 6.64.
Consider `Cc1ccc(-n2ccc3cnc(Nc4ccc(N5CCNCC5)cc4)nc32)cc1NS(=O)(=O)C(C)(C)C`, for which the values for the pIC50 at BRD4-BD1 and on JAK2 were 6.19 and 6.75, respectively.
The matching figures for `Cc1ccc(-n2ccc3cnc(Nc4ccc(N5CCNCC5)cc4)nc32)cc1NS(=O)(=O)C1CC1`: 5.66 and 7.51.
Consider `CN1CCN(c2ccc(Nc3ncc4ccn(-c5ccc(Cl)c(NS(=O)(=O)C(C)(C)C)c5)c4n3)cc2)CC1`, for which the pIC50 on BRD4-BD1 was 6.32; at JAK2, 6.78.
For the molecule `CN1CCC(NC(=O)c2ccc(Nc3ncc4ccn(-c5ccc(F)c(NS(=O)(=O)C6CC6)c5)c4n3)cc2F)CC1`, the pIC50 on BRD4-BD1 is 6.11; on JAK2, 7.46.
Turning to `CN1CCC(NC(=O)c2ccc(Nc3ncc4ccn(-c5cccc(NS(=O)(=O)C6CC6)c5)c4n3)cc2F)CC1`, the pIC50 on BRD4-BD1 was 6.07; on JAK2, 7.89.
For the molecule `CN1CCN(c2ccc(Nc3ncc4ccn(-c5ccc(C#N)c(NS(=O)(=O)C6CC6)c5)c4n3)cc2)CC1`, the pIC50 on BRD4-BD1 is 5.74; at JAK2, 7.11.
Consider `Cc1cc(Nc2ncc3ccn(-c4cccc(NS(=O)(=O)C(C)(C)C)c4)c3n2)ccc1N1CCN(C)CC1`, for which the pIC50 at BRD4-BD1 was 6.14; on JAK2 it was 7.96.
With `COc1cc(N2CCN(C)CC2)ccc1Nc1ncc2ccn(-c3cccc(NS(=O)(=O)C(C)(C)C)c3)c2n1`, the results for the pIC50 at BRD4-BD1 and at JAK2 were 5.80 and 5.55, respectively.
In the case of `CN1CCC(NC(=O)c2ccc(Nc3ncc4ccn(-c5cccc(NS(=O)(=O)C6CC6)c5)c4n3)cc2)CC1`, the negative logarithm of the IC50 (pIC50) was 5.72 at BRD4-BD1 and 7.36 at JAK2.
As for `CN1CCC(c2ccc(Nc3ncc4ccn(-c5cccc(NS(=O)(=O)C6CC6)c5)c4n3)cc2)CC1`, the pIC50 at BRD4-BD1 is 5.57; on JAK2, 7.29.
On to `O=S(=O)(Nc1cccc(-n2ccc3cnc(Nc4ccc(C5CCNCC5)cc4)nc32)c1)C1CC1`, for which the pIC50 was 5.49 at BRD4-BD1 and 7.15 at JAK2.
For `CC(=O)N1CCN(c2ccc(Nc3ncc4ccn(-c5cccc(NS(=O)(=O)C6CC6)c5)c4n3)cc2)CC1`, in that order: 5.24 and 4.60.
In the case of `CN1CCC(NC(=O)c2ccc(Nc3ncc4ccn(-c5ccc(F)c(NS(=O)(=O)C6CC6)c5)c4n3)cc2)CC1`, the results for the pIC50 at BRD4-BD1 and on JAK2 were 5.95 and 6.82, respectively.
As to `CN1CCN(C(=O)Cc2ccc(Nc3ncc4ccn(-c5cccc(NS(=O)(=O)C(C)(C)C)c5)c4n3)cc2)CC1`, the pIC50 at BRD4-BD1 was 6.04; at JAK2 it was 6.75.
With `CC(C)(C)S(=O)(=O)Nc1cc(-n2ccc3cnc(Nc4ccc(C5CCNCC5)cc4)nc32)ccc1F`, the values for the pIC50 on BRD4-BD1 and at JAK2 were 6.32 and 5.80, respectively.
Consider `O=C(NC1CCNCC1)c1ccc(Nc2ncc3ccn(-c4cccc(NS(=O)(=O)C5CC5)c4)c3n2)cc1F`, for which the pIC50 on BRD4-BD1 is 5.80; at JAK2, 7.16.
Turning to `O=C(NC1CCNCC1)c1ccc(Nc2ncc3ccn(-c4cccc(NS(=O)(=O)C5CC5)c4)c3n2)cc1`, the pIC50 was 5.68 at BRD4-BD1 and 7.40 at JAK2.
For `CN1CCN(C(=O)Cc2ccc(Nc3ncc4ccn(-c5cccc(NS(=O)(=O)C6CC6)c5)c4n3)cc2)CC1`, in that order: 5.40 and 6.74.
`COc1cc(Nc2ncc3ccn(-c4cccc(NS(=O)(=O)C5CC5)c4)c3n2)ccc1N1CCN(C)CC1`: the pIC50 on BRD4-BD1 is 5.74; at JAK2, 7.82.
Regarding `CN1CCN(c2ccc(Nc3ncc4ccn(-c5cccc6c5CCN6S(=O)(=O)C(C)(C)C)c4n3)cc2)CC1`, the pIC50 was 5.00 at BRD4-BD1 and 8.10 at JAK2.
As for `CN(C)C1CCN(c2ccc(Nc3ncc4ccn(-c5cccc(NS(=O)(=O)C6CC6)c5)c4n3)cc2)CC1`, the pIC50 on BRD4-BD1 was 6.06; at JAK2 it was 7.85.
The matching figures for `CN1CCC(Nc2nc(Nc3cccc(NS(=O)(=O)C(C)(C)C)c3)c3cc[nH]c3n2)CC1`: 5.15 and 5.00.
With `NC(=O)N1CCN(c2ccc(Nc3ncc4ccn(-c5cccc(NS(=O)(=O)C6CC6)c5)c4n3)cc2)CC1`, the pIC50 is 5.00 at BRD4-BD1 and 7.96 on JAK2.
On to `CN1CCC(NC(=O)c2ccc(Nc3ncc4ccn(-c5ccc(F)c(NS(=O)(=O)C(C)(C)C)c5)c4n3)cc2)CC1`, for which the pIC50 is 6.43 on BRD4-BD1 and 6.75 at JAK2.
As to `CC(C)(C)S(=O)(=O)Nc1cccc(-n2ccc3cnc(Nc4ccc(C(=O)NC5CCNCC5)cc4)nc32)c1`, the pIC50 at BRD4-BD1 was 6.19; on JAK2, 7.62.
For `CN(C)C1CCN(c2ccc(Nc3ncc4ccn(-c5ccc(F)c(NS(=O)(=O)C6CC6)c5)c4n3)cc2)CC1`, the pIC50 is 6.00 on BRD4-BD1 and 8.00 on JAK2.
Consider `CN1CCN(C(=O)c2ccc(Nc3ncc4ccn(-c5cccc(NS(=O)(=O)C(C)(C)C)c5)c4n3)cc2)CC1`, for which the pIC50 on BRD4-BD1 is 6.11; on JAK2, 7.55.
The matching figures for `CNC(=O)N1CCN(c2ccc(Nc3ncc4ccn(-c5cccc(NS(=O)(=O)C(C)(C)C)c5)c4n3)cc2)CC1`: 5.49 and 7.72.
On to `CC(=O)N1CCC(c2ccc(Nc3ncc4ccn(-c5cccc(NS(=O)(=O)C(C)(C)C)c5)c4n3)cc2)CC1`, for which the pIC50 at BRD4-BD1 was 5.00; at JAK2, 6.34.
The matching figures for `COc1cc(Nc2ncc3ccn(-c4ccc(F)c(NS(=O)(=O)C(C)(C)C)c4)c3n2)ccc1N1CCN(C)CC1`: 6.57 and 7.05.
Turning to `CC(=O)N1CCC(c2ccc(Nc3ncc4ccn(-c5cccc(NS(=O)(=O)C6CC6)c5)c4n3)cc2)CC1`, the pIC50 on BRD4-BD1 is 5.00; at JAK2, 6.85.
Take `CNc1nc(NC2CCNCC2)nc2c1ccn2-c1cccc(NS(=O)(=O)C(C)(C)C)c1`: the results for the pIC50 on BRD4-BD1 and on JAK2 were 6.11 and 5.00, respectively.
For the molecule `CN1CCN(c2cccc(Nc3ncc4ccn(-c5cccc(NS(=O)(=O)C(C)(C)C)c5)c4n3)c2)CC1`, the pIC50 at BRD4-BD1 was 5.77; on JAK2 it was 7.13.
Regarding `CN1CCN(c2ccc(Nc3ncc4ccn(-c5cccc(N(C)S(=O)(=O)C(C)(C)C)c5)c4n3)cc2)CC1`, the pIC50 at BRD4-BD1 was 5.96; at JAK2, 8.05.
The matching figures for `CNc1cc(Nc2ncc3ccn(-c4cccc(NS(=O)(=O)C(C)(C)C)c4)c3n2)ccc1N1CCN(C)CC1`: 6.25 and 7.66.
Regarding `CN(C)C1CCN(c2ccc(Nc3ncc4ccn(-c5ccc(F)c(NS(=O)(=O)C(C)(C)C)c5)c4n3)cc2)CC1`, the results for the pIC50 at BRD4-BD1 and at JAK2 were 6.59 and 7.09, respectively.
Regarding `CC(C)(C)S(=O)(=O)Nc1cccc(-n2ccc3cnc(Nc4ccc(CC(=O)NCCN)cc4)nc32)c1`, the pIC50 on BRD4-BD1 is 6.39; on JAK2, 7.19.

These data come from patent US11279703B2, “Fused pyrimidine compounds as BRD4 and JAK2 dual inhibitors and methods for use thereof” (APTOSE BIOSCIENCES INC., priority 2016, dated 2022).
